IC50 data for 22 compounds are collected here from patent US11332459B2 (TEIJIN PHARMA LIMITED, priority 2017, dated 2022).

For this assay, the target named is T1, human TRPC6 (Homo sapiens, UniProt Q9Y210).
T1 construct: expressed in transfected cells
T1 sequence (Q9Y210 1-931): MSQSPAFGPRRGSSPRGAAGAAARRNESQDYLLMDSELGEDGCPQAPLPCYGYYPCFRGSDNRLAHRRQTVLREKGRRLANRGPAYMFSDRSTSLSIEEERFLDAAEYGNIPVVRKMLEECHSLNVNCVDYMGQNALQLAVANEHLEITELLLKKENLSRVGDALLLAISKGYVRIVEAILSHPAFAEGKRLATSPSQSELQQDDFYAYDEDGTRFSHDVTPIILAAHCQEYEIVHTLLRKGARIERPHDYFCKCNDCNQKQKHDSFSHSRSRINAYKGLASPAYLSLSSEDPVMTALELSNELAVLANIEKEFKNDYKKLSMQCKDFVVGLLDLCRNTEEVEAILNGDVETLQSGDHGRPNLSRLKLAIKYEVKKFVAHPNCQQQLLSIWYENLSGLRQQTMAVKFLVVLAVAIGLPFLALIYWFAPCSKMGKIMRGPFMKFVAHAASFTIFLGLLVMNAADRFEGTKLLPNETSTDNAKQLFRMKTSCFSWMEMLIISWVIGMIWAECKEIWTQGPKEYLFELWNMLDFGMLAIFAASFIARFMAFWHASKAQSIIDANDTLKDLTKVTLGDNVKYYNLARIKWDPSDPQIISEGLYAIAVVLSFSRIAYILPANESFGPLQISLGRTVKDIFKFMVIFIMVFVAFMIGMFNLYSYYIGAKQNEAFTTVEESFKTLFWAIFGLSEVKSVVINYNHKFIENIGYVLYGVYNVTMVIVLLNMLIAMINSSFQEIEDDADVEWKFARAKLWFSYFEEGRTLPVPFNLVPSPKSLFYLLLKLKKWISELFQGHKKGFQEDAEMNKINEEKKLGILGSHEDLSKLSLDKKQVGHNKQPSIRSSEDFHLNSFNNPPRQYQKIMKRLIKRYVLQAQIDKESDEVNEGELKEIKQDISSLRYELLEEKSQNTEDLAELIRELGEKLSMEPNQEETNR
As to the kind of experiment: TRPC6 calcium flux assay (FLIPR, OAG-stimulated calcium influx). In kind it is cell-based. The settings on record: HEK293 cells stably transfected with human TRPC6, read-out: hTRPC6 Potency. In short, it runs like this:
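HEK293 cells stably expressing human TRPC6, loaded with calcium dye 90–120 min at RT, then given compound for 25 min before OAG (50 uM final, 0.5% DMSO) in HEPES buffer pH 7.2 with 2 mM CaCl2. Background-subtracted FLIPR peak over 180 s normalized to OAG vs buffer; IC50 from dose plot.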
On the technique in general: Calcium assays in cells follow changes in intracellular calcium, usually with a dye or a luminescent sensor.

Take `CN(CC(F)(F)F)C(=O)Cn1c(N2CC[C@@H](F)[C@H](N)C2)nc2cc(F)c(F)cc21` [Example 500, 2-(2-((3R,4R)-3-amino-4-fluoropiperidin-1-yl)-5,6-difluoro-1H-benzo[d]imidazol-1-yl)-N-methyl-N-(2,2,2-trifluoroethyl)acetamide]: the IC50 was 5.15 nM.
For `CN(C(=O)Cn1c(N2CC[C@@H](F)[C@H](N)C2)nc2cc(F)c(F)cc21)c1nccs1` [Example 501, 2-(2-((3R,4R)-3-amino-4-fluoropiperidin-1-yl)-5,6-difluoro-1H-benzo[d]imidazol-1-yl)-N-methyl-N-(thiazol-2-yl)acetamide] the value was 6.21 nM.
As to `CN(C)C(=O)Cn1c(N2CC[C@@H](F)[C@H](N)C2)nc2ccc(Cl)cc21` [Example 502, 2-(2-((3R,4R)-3-amino-4-fluoropiperidin-1-yl)-6-chloro-1H-benzo[d]imidazol-1-yl)-N,N-dimethylacetamide], the IC50 stood at 9.09 nM.
Turning to `N[C@@H]1CN(c2nc3ccc(F)cc3n2CC(=O)N2CCC2)CC[C@H]1F` [Example 503, 2-(2-((3R,4R)-3-amino-4-fluoropiperidin-1-yl)-6-fluoro-1H-benzo[d]imidazol-1-yl)-1-(azetidin-1-yl)ethan-1-one], the IC50 stood at 25.6 nM.
For `N[C@@H]1CN(c2nc3cc(F)c(F)cc3n2CC(=O)N2CCc3sccc3C2)CC[C@H]1F` [Example 505, 2-(2-((3R,4R)-3-amino-4-fluoropiperidin-1-yl)-5,6-difluoro-1H-benzo[d]imidazol-1-yl)-1-(6,7-dihydrothieno[3,2-c]pyridin-5(4H)-yl)ethan-1-one] the value was 43.2 nM.
The same measure for `CN(C)C(=O)Cn1c(N2CC[C@@H](F)[C@H](N)C2)nc2cc(Cl)ccc21` [Example 506, 2-(2-((3R,4R)-3-amino-4-fluoropiperidin-1-yl)-5-chloro-1H-benzo[d]imidazol-1-yl)-N,N-dimethylacetamide]: 76.6 nM; for `COc1cc(F)cc2nc(N3CC[C@@H](F)[C@H](N)C3)n(CC(=O)N(C)CC(F)(F)F)c12` [Example 509, 2-(2-((3R,4R)-3-amino-4-fluoropiperidin-1-yl)-5-fluoro-7-methoxy-1H-benzo[d]imidazol-1-yl)-N-methyl-N-(2,2,2-trifluoroethyl)acetamide]: 131 nM; for `N[C@@H]1CN(c2nc3cc(F)c(F)cc3n2CC(=O)N2CCCCCCC2)CC[C@H]1F` [Example 510, 2-(2-((3R,4R)-3-amino-4-fluoropiperidin-1-yl)-5,6-difluoro-1H-benzo[d]imidazol-1-yl)-1-(azocan-1-yl)ethan-1-one]: 139 nM.
The same measure for `N[C@@H]1CN(c2nc3cc(F)c(F)cc3n2CC(=O)N2CCN(c3cnccn3)CC2)CC[C@H]1F` [Example 511, 2-(2-((3R,4R)-3-amino-4-fluoropiperidin-1-yl)-5,6-difluoro-1H-benzo[d]imidazol-1-yl)-1-(4-(pyrazin-2-yl)piperazin-1-yl)ethan-1-one]: 158 nM.
For the compound `COC(=O)C1CCN(C(=O)Cn2c(N3CC[C@@H](F)[C@H](N)C3)nc3cc(F)c(F)cc32)CC1` [Example 512, methyl 1-(2-(2-((3R,4R)-3-amino-4-fluoropiperidin-1-yl)-5,6-difluoro-1H-benzo[d]imidazol-1-yl)acetyl)piperidine-4-carboxylate], the IC50 was 162 nM.
As for `CCC1CN(C(=O)Cn2c(N3CC[C@@H](F)[C@H](N)C3)nc3cc(F)c(F)cc32)CCO1` (stereo partly drawn) [Example 513, 2-(2-((3R,4R)-3-amino-4-fluoropiperidin-1-yl)-5,6-difluoro-1H-benzo[d]imidazol-1-yl)-1-(2-ethylmorpholino)ethan-1-one], the IC50 was determined as 183 nM.
For the compound `N[C@@H]1CN(c2nc3cc(F)ccc3n2CC(=O)N2CCC2)CC[C@H]1F` [Example 514, 2-(2-((3R,4R)-3-amino-4-fluoropiperidin-1-yl)-5-fluoro-1H-benzo[d]imidazol-1-yl)-1-(azetidin-1-yl)ethan-1-one], the IC50 came out at 185 nM.
As for `CC1CCN(C(=O)Cn2c(N3CC[C@@H](F)[C@H](N)C3)nc3cc(F)c(F)cc32)CC1` [Example 516, 2-(2-((3R,4R)-3-amino-4-fluoropiperidin-1-yl)-5,6-difluoro-1H-benzo[d]imidazol-1-yl)-1-(4-methylpiperidin-1-yl)ethan-1-one], the IC50 is 197 nM.
For `CCC1CN(C(=O)Cn2c(N3CC[C@@H](F)[C@H](N)C3)nc3cc(F)c(F)cc32)CCO1` (stereo partly drawn) [Example 518, 2-(2-((3R,4R)-3-amino-4-fluoropiperidin-1-yl)-5,6-difluoro-1H-benzo[d]imidazol-1-yl)-1-(2-ethylmorpholino)ethan-1-one] the value was 400 nM.
Take `N#Cc1ccc(Cn2c(N3CC[C@@H](F)[C@H](N)C3)nc3cc(C(F)(F)F)cnc32)nc1` [Example 519, 6-((2-((3R,4R)-3-amino-4-fluoropiperidin-1-yl)-6-(trifluoromethyl)-3H-imidazo[4,5-b]pyridin-3-yl)methyl)nicotinonitrile]: the IC50 was 476 nM.
Consider `N[C@@H]1CN(c2nc3ccccc3n2CC(=O)N2CCC2)CC[C@H]1F` [Example 520, 2-(2-((3R,4R)-3-amino-4-fluoropiperidin-1-yl)-1H-benzo[d]imidazol-1-yl)-1-(azetidin-1-yl)ethan-1-one], for which the IC50 is 686 nM.
For `NC(=O)C1CCCCN1C(=O)Cn1c(N2CC[C@@H](F)[C@H](N)C2)nc2cc(F)c(F)cc21` (stereo partly shown) [Example 521] the value was 757 nM.
For the compound `COc1ccnc(Cn2c(N3CC[C@@H](F)[C@H](N)C3)nc3cc(F)ccc32)c1` [Example 524, (3R,4R)-4-fluoro-1-(5-fluoro-1-((4-methoxypyridin-2-yl)methyl)-1H-benzo[d]imidazol-2-yl)piperidin-3-amine], the IC50 was found to be 1490 nM.
In the case of `N[C@@H]1CN(c2nc3cc(F)c(F)cc3n2CC(=O)N(C2CC2)C2CCS(=O)(=O)C2)CC[C@H]1F` (stereo partly drawn) [Example 526, 2-(2-((3R,4R)-3-amino-4-fluoropiperidin-1-yl)-5,6-difluoro-1H-benzo[d]imidazol-1-yl)-N-cyclopropyl-N-(1,1-dioxidotetrahydrothiophen-3-yl)acetamide], the IC50 was 2850 nM.
For `N[C@@H]1CN(c2nc3cc(F)c(F)cc3n2CC(=O)N2CCNC(=O)C2)CC[C@H]1F` [Example 528, 4-(2-(2-((3R,4R)-3-amino-4-fluoropiperidin-1-yl)-5,6-difluoro-1H-benzo[d]imidazol-1-yl)acetyl)piperazin-2-one] the value was more than 3750 nM; for `N[C@@H]1CN(c2nc3cc(F)c(F)cc3n2CC(=O)N2CCC(C(=O)N3CCCC3)CC2)CC[C@H]1F` [Example 529, 2-(2-((3R,4R)-3-amino-4-fluoropiperidin-1-yl)-5,6-difluoro-1H-benzo[d]imidazol-1-yl)-1-(4-(pyrrolidine-1-carbonyl)piperidin-1-yl)ethan-1-one], more than 1750 nM.
As to `N[C@@H]1CN(c2nc3cc(F)c(F)cc3n2CC(=O)N2CCN(C(=O)C3CC3)CC2)CC[C@H]1F` [Example 531, 2-(2-((3R,4R)-3-amino-4-fluoropiperidin-1-yl)-5,6-difluoro-1H-benzo[d]imidazol-1-yl)-1-(4-(cyclopropanecarbonyl)piperazin-1-yl)ethan-1-one], the IC50 is more than 3750 nM.
